Results on seven compounds are retold here after PubChem BioAssay (NCI).

Some test systems named below: HL-60(TB) leukemia; SK-OV-3 ovarian; UACC-257 melanoma; SNB-19 CNS; CCRF-CEM leukemia; MDA-MB-231 breast; IGROV1 ovarian; CAKI-1 renal.
What all share (assay): NCI tumour cell line growth inhibition, 48 h

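Dose response: 5 concentrations. Exposure: 48 h. Format: 96-well plates. Endpoint: linear interpolation; highest concentration if not reached. Here, GI50 denotes the concentration required for 50% inhibition of growth. TGI: concentration producing complete growth inhibition.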

Take `CCOC(=O)c1sc(=S)c2c(C(=O)c3ccccc3)c(C(=O)c3ccccc3)sc2c1C(=O)OCC`: the GI50 in the assay with HL-60(TB) leukemia was 2.71 µM; in the assay on SK-OV-3 ovarian, 37.4 µM; in the assay with UACC-257 melanoma, 3.45 µM; with SNB-19 CNS it was 8.87 µM; in the assay with CCRF-CEM leukemia, 2.1 µM; with MDA-MB-231 breast it was 3.61 µM. In addition, the GI50 with IGROV1 ovarian was 5.24 µM; in the assay on CAKI-1 renal it was 3.93 µM. Also, the TGI with HL-60(TB) leukemia is 7.58 µM; with SK-OV-3 ovarian, more than 100 µM; in the assay with UACC-257 melanoma, 25.7 µM; in the assay with SNB-19 CNS, more than 100 µM; in the assay with CCRF-CEM leukemia, 5.99 µM; in the assay on MDA-MB-231 breast it was 34.5 µM. The TGI is 85.7 µM with IGROV1 ovarian and more than 100 µM in the assay with CAKI-1 renal.
With `CCN(CC)c1ccc(/C=N/NC(=O)c2ccc(Nc3ccnc(C(F)(F)F)c3)cc2)c(O)c1`, the GI50 in the assay with HL-60(TB) leukemia is 0.258 µM; with SK-OV-3 ovarian, 0.324 µM; with UACC-257 melanoma, 0.412 µM; in the assay with SNB-19 CNS it was 0.39 µM; in the assay on CCRF-CEM leukemia it was 0.0532 µM; in the assay on MDA-MB-231 breast, 0.396 µM. For the same compound, the GI50 with IGROV1 ovarian is 0.158 µM; with CAKI-1 renal, 0.268 µM. Further, the TGI in the assay with HL-60(TB) leukemia was 0.791 µM; in the assay with SK-OV-3 ovarian, 8.36 µM; with UACC-257 melanoma it was more than 31 µM; in the assay with SNB-19 CNS, more than 73.6 µM; in the assay on CCRF-CEM leukemia it was 0.771 µM; in the assay with MDA-MB-231 breast, 3.97 µM. In the assay with CAKI-1 renal, this compound showed a TGI of 2.07 µM.
Regarding `CCCCCC(=O)N1c2ccccc2NC2=C(C(=O)CC(c3ccc(OC)c(OC)c3)C2)C1c1ccc(C(F)(F)F)cc1` (stereo unspecified), the GI50 with HL-60(TB) leukemia was more than 100 µM; with SK-OV-3 ovarian, more than 100 µM; with UACC-257 melanoma, more than 100 µM; in the assay on SNB-19 CNS, more than 100 µM; in the assay on CCRF-CEM leukemia, more than 100 µM; with MDA-MB-231 breast it was 20.4 µM. Also, the GI50 in the assay with IGROV1 ovarian was more than 100 µM; in the assay with CAKI-1 renal, 35.6 µM. The TGI in the assay with HL-60(TB) leukemia, in the assay with SK-OV-3 ovarian, with UACC-257 melanoma, with SNB-19 CNS, with CCRF-CEM leukemia and in the assay with MDA-MB-231 breast was more than 100 µM throughout. The TGI in the assay with IGROV1 ovarian and in the assay with CAKI-1 renal was more than 100 µM each time.
As for `COC(=O)c1c2c(c(C)[n+]([O-])c1C)C(=O)C=C(NCc1ccc(Cl)cc1)C2=O`, the GI50 was 0.324 µM with HL-60(TB) leukemia; 1.85 µM in the assay on SK-OV-3 ovarian; 0.234 µM in the assay on UACC-257 melanoma; 1.16 µM in the assay on SNB-19 CNS; 0.471 µM in the assay on CCRF-CEM leukemia; 0.286 µM in the assay with MDA-MB-231 breast. Further, the GI50 is 0.346 µM in the assay on IGROV1 ovarian and 0.109 µM with CAKI-1 renal. For the same compound, the TGI in the assay on HL-60(TB) leukemia came out at 1.55 µM; in the assay with SK-OV-3 ovarian, 4.64 µM; in the assay with UACC-257 melanoma, 0.868 µM; with SNB-19 CNS it was 2.39 µM; with CCRF-CEM leukemia, 4.2 µM; with MDA-MB-231 breast, 3.62 µM. For the same compound, the TGI stood at 1.82 µM in the assay on IGROV1 ovarian and 2.18 µM in the assay with CAKI-1 renal.
With `O=C(Nc1ccccc1Cl)c1cnc2ccc(C3CCNCC3)cn12`, the GI50 in the assay on HL-60(TB) leukemia is more than 67.9 µM; with SK-OV-3 ovarian, 3.05 µM; with UACC-257 melanoma, 16.2 µM; with SNB-19 CNS, more than 87.7 µM; with CCRF-CEM leukemia it was more than 100 µM; in the assay on MDA-MB-231 breast it was 2.48 µM. Also, the GI50 in the assay with IGROV1 ovarian was 0.626 µM; in the assay with CAKI-1 renal, 1.51 µM. Further, the TGI is more than 100 µM in the assay with HL-60(TB) leukemia; more than 100 µM with SK-OV-3 ovarian; 37.1 µM with UACC-257 melanoma; more than 100 µM in the assay with SNB-19 CNS; more than 100 µM in the assay with CCRF-CEM leukemia; 59.7 µM in the assay with MDA-MB-231 breast. The TGI turned out to be 14.6 µM with IGROV1 ovarian and 12 µM in the assay with CAKI-1 renal.
Take `O=C(O)C(/C=C/c1ccco1)=N\Nc1nc(-c2ccc(Cl)cc2)cs1`: the GI50 in the assay on HL-60(TB) leukemia is 17.1 µM; in the assay on SK-OV-3 ovarian, 16.1 µM; in the assay on UACC-257 melanoma it was 16.8 µM; with SNB-19 CNS, 9.64 µM; with CCRF-CEM leukemia, 3.26 µM; in the assay with MDA-MB-231 breast, 14.7 µM. Moreover, the GI50 with IGROV1 ovarian is 7.93 µM; in the assay with CAKI-1 renal, 16.6 µM. In addition, the TGI in the assay on HL-60(TB) leukemia, with SK-OV-3 ovarian, in the assay with UACC-257 melanoma, in the assay with SNB-19 CNS, in the assay on CCRF-CEM leukemia and in the assay on MDA-MB-231 breast was more than 50 µM in each case. Further, the TGI in the assay with IGROV1 ovarian is 29.6 µM; in the assay on CAKI-1 renal, more than 50 µM.
For the compound `O=c1cc/c(=N\Nc2ccccc2)c(=O)/c1=N/Nc1ccccc1`, the GI50 in the assay with HL-60(TB) leukemia, in the assay on SK-OV-3 ovarian, with UACC-257 melanoma, in the assay with SNB-19 CNS, with CCRF-CEM leukemia and in the assay on MDA-MB-231 breast was more than 50 µM each time. Moreover, the GI50 in the assay on IGROV1 ovarian and with CAKI-1 renal was more than 50 µM in each case. Besides, the TGI with HL-60(TB) leukemia, in the assay on SK-OV-3 ovarian, with UACC-257 melanoma, in the assay with SNB-19 CNS, with CCRF-CEM leukemia and with MDA-MB-231 breast was more than 50 µM in each case. Besides, the TGI in the assay on IGROV1 ovarian and in the assay on CAKI-1 renal was more than 50 µM in each case.
